Data from BigSolDB 2.1.

CN1C(C(=O)Nc2ccccn2)=C(O)c2sccc2S1(=O)=O
Conditions | solubility (mole fraction)
in PEG-400, 298.15 K | 0.00976
in PEG-400, 303.15 K | 0.0131
in PEG-400, 308.15 K | 0.0175
in PEG-400, 313.15 K | 0.0227
in PEG-400, 323.15 K | 0.0345

solubility (mole fraction)
Conditions | in ethanol | in ethyl acetate | in ethylene glycol | in isopropanol | in n-butanol | in propylene glycol | in sec-butanol | in transcutol | in water
298.15 K | 3.71e-05 | 0.000679 | 0.000213 | 6.27e-05 | 8.13e-05 | 0.000194 | 6.15e-05 | 0.00183 | 4.11e-06
303.15 K | 4.11e-05 | 0.000746 | 0.000246 | 8.91e-05 | 0.000105 | 0.000235 | 8.79e-05 | 0.00202 | 5.07e-06
308.15 K | 4.56e-05 | 0.000825 | 0.000283 | 0.000125 | 0.000134 | 0.000275 | 0.000123 | 0.00222 | 6.46e-06
313.15 K | 4.98e-05 | 0.000908 | 0.000324 | 0.000164 | 0.000163 | 0.000327 | 0.000163 | 0.00241 | 8.33e-06
323.15 K | 5.84e-05 | 0.00106 | 0.000441 | 0.000267 | 0.000239 | 0.000437 | 0.000272 | 0.00286 | 1.38e-05
